# Assays:
# [1] = molecular target: T1, human plasmin (Homo sapiens, UniProt P00747); assay: Anti-plasmin activity: inhibition of S-2251 degradation; assay type: biochemical; conditions: substrate S-2251, 37°C, pH7.4; read-out: Plasmin S-2251 (I50)
# T1 construct: 50 µl of 0.2 casein units/ml of human plasmin
# Procedure: ii) Assay method of inhibition of S-2251 degradation
# The test substance was dissolved in a 0.05 M Tris-HC1 (pH7.4) buffer to make a total volume of 400 µl, and 50 µl of a 3 mM S-2251 solution was added to the solution. The mixture was incubated at 37°C for 5 minutes in an incubator, and after the addition of 50 µl of 0.2 casein units/ml of human plasmin, and incubation at 37°C for 4 minutes, the reaction was terminated by an addition of 50 µl of 50% acetic acid.
# [2] = molecular target: T1, human plasmin; assay: Anti-plasmin activity: inhibition of fibrinolysis (fibrin clot lysis time); assay type: biochemical; conditions: concentration giving a fibrin clot lysis time twice that of control, 37°C, pH7.4; read-out: Plasmin Fibrin (I50)
# [3] = molecular target: T2, human plasma kallikrein (Homo sapiens, UniProt P03952); assay: Anti-plasma kallikrein activity: inhibition of S-2302 degradation; assay type: biochemical; conditions: substrate S-2302, 37°C, pH 7.8; read-out: Plasma kallikrein S-2302 (I50)
# T2 construct: 50 µl of 0.12 units/ml human plasma kallikrein solution
# Procedure: 2) Assay of anti-plasma kallikrein activity Assay method of inhibition of S-2302 degradation
# (§1) The test substance was dissolved in a 0.05 M Tris-HC1 (pH 7.8) buffer to make a total volume of 400 µl, and 50 µl of a 2 mM S-2302 solution was added to the solution. After incubation at 37°C for 5 minutes in an incubator, an addition of 50 µl of 0.12 units/ml human plasma kallikrein solution, and incubation at 37°C for 5 minutes, the reaction was terminated by an addition of 50 µl of 50% acetic acid.
# [4] = molecular target: human urokinase (Homo sapiens, UniProt P00749); assay: Anti-urokinase activity: inhibition of S-2444 degradation; assay type: biochemical; conditions: substrate S-2444, 37°C, pH 8.8; read-out: Urokinase S-2444 (I50)
# Procedure: 3) Assay of anti-urokinase activity Assay method of inhibition of S-2444 degradation
# as §1, with “8.8)” for “7.8)”, “1” for “2”, “S-2444” for “S-2302”, “mixture.” for “solution.”, “500” for “0.12”, “urokinase” for “plasma kallikrein”
# [5] = test system: experimental pancreatitis; assay: Effect on experimental pancreatitis (sodium taurochorate + trypsin into the common bile duct), survival ratio; assay type: in vivo, SD-rats; conditions: 80 μg/kg/min. x 80 min. continuous infusion, rat
# Source text: [II] Effect on experimental pancreatitis
# SD-rats, body weight of about 200 g were, starved overnight, and 10 to 24 animals were used in one group. Sodium pentobarbital was intraperioneally administered to anesthetize each rat, and then a cannula was inserted to the femoral vein for the administration of the test substance. After abdominal surgery, the bile duct was blocked at a part thereof proximate to the liver, by a clip, a polyethylene tube was inserted to the common bile duct at a part thereof most proximate to the duodenum, and 0.1 ml of solution containing 2 mg sodium taurochorate and 1000 U trypsin dissolved in physiological saline was injected retrogrodely. After removal of the clip and tube, the common bile duct was ligated and the abdomen was closed. Note, the test substance was dissolved in an injective 5% glucose solution, and in the case of a continuous infusion, the solution was administered over 80 minutes starting from 10 minutes before the generation of pancreatitis. In the case of oral administration, the test substance was administered through an oral catheter 30 minutes before the generation of pancreatitis. After 24 hours and 48 hours from the generation of pancreatitis, the survival ratio of the animals was calculated and compared with a control group.
# [6] = test system: experimental shock; assay: Effect on experimental shock (endotoxin-induced), survival ratio; assay type: in vivo, ICR-mice; conditions: dose of 30 mg/kg intraperitoneally 15 minutes before endotoxin 40 mg/kg, mouse
# Procedure: [IV] Effect on experimental shock
# ICR-mice, body weight of about 25 g, were starved overnight. The test substance was dissolved in an injective 5% glucose solution and intraperioneally administered, and 15 minutes later, endotoxin (E. coli 0127:B8, Difco, U.S.) dissolved in a physiological saline was intraperioneally administered to an amount of 40 mg/kg body weight.
# [7] = in vivo; conditions: mouse, intravenous, ICR male mice, up-and-down method, read-out: Acute toxicity (LD50)
# Procedure: ICR male mice 5 to 10 weeks old were used. The test substance was dissolved in a 5% dimethylsulfoxide aqueous solution, and the solution was intravenously administered in an amount of 0.1 to 0.2 ml/10 g body weight. An LD50 value was calculated by up-and-down method.
# [8] = molecular target: T3, bovine factor Xa (Bos taurus, UniProt P00743); assay: Anti-FXa activity: inhibition of S-2222 degradation; assay type: biochemical; conditions: substrate S-2222, 37°C, pH 8.3; read-out: FXa S-2222 (I50)
# T3 construct: 0.05 ml of 0.3 vial/ml bovine factor Xa
# Procedure: 4) Assay of anti-FXa activity Assay method of inhibition of S-2222 degradation
# To 0.4 ml of the test substance dissolved in a 0.05 M Tris-HC1 (pH 8.3) buffer is added 0.05 ml of 3 mM S-2222 solution, and after incubation at 37°C for about 4 minutes, an addition of 0.05 ml of 0.3 vial/ml bovine factor Xa, and a reaction at 37°C for 4 minutes, the - reaction was terminated by adding 0.05 ml of 50% acetic acid.
# [9] = test system: experimental DIC; assay: Effect on experimental DIC and MOF (endotoxin-induced); assay type: in vivo, SD-rats; conditions: Dose 100 μg/kg/min infusion, rat, 4 hours after endotoxin 10 mg/kg; for CPK: Table 5-1
# Procedure: [III] Effect on experimental DIC
# SD-rats, body weight of about 200 g, were starved overnight. Sodium pentobarbital was intraperioneally administered to anesthetize a rat, and then a cannula was inserted to the femoral vein, and the test substance dissolved in an injective 5% glucose solution was continually infused. Then, 10 minutes from the start of the injection, endotoxin (E. coli 0127:B8, Difco, U.S.) dissolved in physiological saline was injected through the tail vein to an amount of 10 mg/kg body weight, and 4 hours from the administration of endotoxin, the abdomen was opened, blood was obtained from the abdominal aorta, and platelets (Plt), fibrinogen (Fbg), fibrin degradation product (FDP), glutamic oxaloacetic transamirase (GOT), creatinine phosphokinase (CPK), and blood urin nitrogen (BUN) were measured.
# T2 sequence (P03952 391-638 limits assumed): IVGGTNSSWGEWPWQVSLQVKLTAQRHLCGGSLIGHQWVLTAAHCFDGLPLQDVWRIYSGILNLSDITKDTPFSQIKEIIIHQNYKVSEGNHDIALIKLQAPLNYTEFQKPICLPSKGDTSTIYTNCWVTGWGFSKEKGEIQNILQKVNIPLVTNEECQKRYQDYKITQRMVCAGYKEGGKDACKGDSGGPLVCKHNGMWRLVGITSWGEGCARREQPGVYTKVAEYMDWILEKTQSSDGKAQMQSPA
# T2 sequence (P03952 20-390 partner limits assumed): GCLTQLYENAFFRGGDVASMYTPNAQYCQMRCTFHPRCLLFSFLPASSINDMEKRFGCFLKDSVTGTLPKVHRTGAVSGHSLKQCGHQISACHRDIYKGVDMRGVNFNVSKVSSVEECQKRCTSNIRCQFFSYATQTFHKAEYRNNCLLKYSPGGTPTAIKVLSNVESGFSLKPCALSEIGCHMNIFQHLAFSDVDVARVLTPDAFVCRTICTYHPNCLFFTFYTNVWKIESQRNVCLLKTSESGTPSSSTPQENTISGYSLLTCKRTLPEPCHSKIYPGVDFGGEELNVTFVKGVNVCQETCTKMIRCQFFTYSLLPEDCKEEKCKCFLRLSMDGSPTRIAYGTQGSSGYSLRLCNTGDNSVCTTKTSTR
# T3 sequence (P00743 234-492 limits assumed): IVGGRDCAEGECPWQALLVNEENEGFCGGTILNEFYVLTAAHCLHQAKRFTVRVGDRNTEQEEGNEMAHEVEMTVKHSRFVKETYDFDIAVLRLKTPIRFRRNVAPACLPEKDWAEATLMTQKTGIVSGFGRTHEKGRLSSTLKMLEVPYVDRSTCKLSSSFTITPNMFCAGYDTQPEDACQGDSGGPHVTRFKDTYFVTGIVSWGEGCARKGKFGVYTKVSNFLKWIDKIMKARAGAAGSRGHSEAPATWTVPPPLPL
# T3 sequence (P00743 41-180 partner limits assumed): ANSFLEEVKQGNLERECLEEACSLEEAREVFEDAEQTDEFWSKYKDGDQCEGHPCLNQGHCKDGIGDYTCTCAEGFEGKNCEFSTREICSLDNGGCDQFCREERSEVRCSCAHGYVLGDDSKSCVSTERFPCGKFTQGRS
# T1 sequence (P00747 581-810 limits assumed): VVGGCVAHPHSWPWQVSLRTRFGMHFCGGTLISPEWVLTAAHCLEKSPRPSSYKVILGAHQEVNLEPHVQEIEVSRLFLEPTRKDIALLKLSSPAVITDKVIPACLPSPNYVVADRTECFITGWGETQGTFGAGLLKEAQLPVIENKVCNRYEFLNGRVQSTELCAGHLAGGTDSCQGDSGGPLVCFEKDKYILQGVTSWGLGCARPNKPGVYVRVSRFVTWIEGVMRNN
# T1 sequence (P00747 97-580 partner limits assumed): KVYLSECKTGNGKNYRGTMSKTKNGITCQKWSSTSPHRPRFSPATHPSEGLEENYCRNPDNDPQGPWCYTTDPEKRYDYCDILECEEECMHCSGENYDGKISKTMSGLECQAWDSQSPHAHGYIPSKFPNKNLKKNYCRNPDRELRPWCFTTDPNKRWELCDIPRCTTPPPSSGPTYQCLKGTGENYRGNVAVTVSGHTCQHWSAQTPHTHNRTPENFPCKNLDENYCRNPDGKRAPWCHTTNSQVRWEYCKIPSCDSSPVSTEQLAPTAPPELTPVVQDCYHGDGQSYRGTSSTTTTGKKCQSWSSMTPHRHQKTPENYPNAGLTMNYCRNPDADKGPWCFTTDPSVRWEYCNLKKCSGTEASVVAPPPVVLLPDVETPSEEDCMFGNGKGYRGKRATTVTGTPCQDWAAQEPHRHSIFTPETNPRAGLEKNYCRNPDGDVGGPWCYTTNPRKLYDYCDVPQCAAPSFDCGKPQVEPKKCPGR
SMILES,IC50 [1],IC50 [2],IC50 [3],IC50 [4],Effect on experimental pancreatitis Survival ratio(%) After 24 hours [5],Effect on experimental pancreatitis Survival ratio(%) After 48 hours [5],Effect on experimental shock (Survival ratio (%) after 24 hours) [6],LD50 [7],IC50 [8],BUN [9],FDP [9],Fbg [9],GOT [9],Plat [9],CPK [9]
NC[C@H]1CC[C@H](C(=O)NC(Cc2cccc(Oc3ccccc3)c2)C(=O)Nc2ccnc(Cl)c2)CC1 (mixture of isomers) [Compound 11],31 µM,10 µM,0.43 µM,190 µM,42.0%,26.7%,84%,> 100 mg/kg,,,,,,,
NC[C@H]1CC[C@H](C(=O)NC(Cc2cccc(Oc3ccccc3)c2)C(=O)Nc2ccncc2)CC1 (mixture of isomers) [Compound 13],,,,,,,79%,85 mg/kg,> 200 µM,,,,,,
NC[C@H]1CC[C@H](C(=O)NC(Cc2cccc(Oc3ccccc3)c2)C(=O)Nc2cccnc2)CC1 (mixture of isomers) [Compound 14],98 µM,70 µM,2 µM,250 µM,58.3%,41.7%,,50 mg/kg,,,,,,,
CC(=O)c1ccc(NC(=O)[C@H](Cc2ccccc2)NC(=O)[C@H]2CC[C@H](CN)CC2)cc1 [Compound 2],36 µM,21 µM,0.85 µM,58 µM,,,50%,50 mg/kg,540 µM,,,,,,
NC[C@H]1CC[C@H](C(=O)N[C@@H](Cc2ccc(OCc3ccccc3)cc2)C(=O)Nc2ccncc2)CC1 [Compound 4],3.4 µM,0.7 µM,1.2 µM,32 µM,,,82%,85 mg/kg,90 µM,,,,,,
CC(=O)c1ccc(NC(=O)[C@H](Cc2cccc(Oc3ccccc3)c2)NC(=O)[C@H]2CC[C@H](CN)CC2)cc1 [Compound 7],,,,,,,90%,60 mg/kg,> 200 µM,,,,,,
NC[C@H]1CC[C@H](C(=O)N[C@@H](Cc2ccc(OCc3ccccc3)cc2)C(=O)Nc2ccncn2)CC1 [Compound 15],15 µM,6.8 µM,5.1 µM,110 µM,50.0%,25.0%,,> 100 mg/kg,,,,,,,
NC[C@H]1CC[C@H](C(=O)N[C@@H](Cc2ccc(OCc3ccccc3)cc2)C(=O)Nc2ccc(CCC(=O)O)cc2)CC1 [Compound 16],12 µM,9 µM,1.8 µM,210 µM,58.3%,58.3%,,> 100 mg/kg,,,,,,,
NCC1CCC(C(=O)NC(Cc2ccccc2)C(=O)Nc2ccc(CC(=O)O)cc2)CC1 (centres unmarked) [Compound 17],760 µM,460 µM,1.8 µM,610 µM,,,,,> 1000 µM,34 ± 11 mg/dL,16 to 64 µg/mL,143 ± 23 mg/dL,146 ± 21 U/ml,63 ± 2 x 10^4/μl,22 ± 6 U/1
CC(=O)c1ccc(NC(=O)[C@H](Cc2ccc(OCc3ccccn3)cc2)NC(=O)c2ccc(CN)cc2)cc1 [Compound 19],4.2 µM,2.5 µM,12 µM,,50.0%,33.3%,,,,30 ± 4 mg/dL,16 to 32 µg/mL,147 ± 16 mg/dL,219 ± 39 U/ml,80 ± 11 x 10^4/μl,19 ± 2 U/1
CCOC(=O)CCc1ccc(NC(=O)C(Cc2ccc(OCc3ccccc3)cc2)NC(=O)C2CCC(CN)CC2)cc1 (centres unmarked) [Compound 21],,,,,45.5%,36.4%,,100 mg/kg,,,,,,,
NCC1CCC(C(=O)NC(Cc2ccccc2)C(=O)Nc2ccc(C(=O)O)cc2)CC1 (centres unmarked) [Compound 22],> 1000 µM,560 µM,2.7 µM,> 1000 µM,,,,> 100 mg/kg,> 400 µM,30 ± 3 mg/dL,32 to 64 µg/mL,107 ± 18 mg/dL,195 ± 35 U/ml,62 ± 12 x 10^4/μl,14 ± 3 U/1
NCC1CCC(C(=O)NC(Cc2ccc(OCc3ccccc3)cc2)C(=O)Nc2ccncc2)CC1 (centres unmarked) [Compound 23],120 µM,140 µM,360 µM,> 1000 µM,,,51%,60 mg/kg,,,,,,,
CC(=O)c1ccc(NC(=O)[C@@H](Cc2ccc(OCc3ccccn3)cc2)NC(=O)C2CCC(CN)CC2)cc1 (some centres unmarked) [Compound 24],78 µM,240 µM,> 1000 µM,> 1000 µM,,,,,,,,,,,
NCC1CCC(C(=O)N[C@H](Cc2ccc([N+](=O)[O-])cc2)C(=O)Nc2ccc(C(=O)c3ccccc3)cc2)CC1 (some centres unmarked) [Compound 25],240 µM,58 µM,> 250 µM,170 µM,,,70%,,,,,,,,

# Source: patent publication EP0369035A1, “AGENT FOR TREATING PANCREATITIS OR THE LIKE” (priority 1988, dated 1989)
